Test results as given in US12441777B2 (NXERA PHARMA UK LIMITED, priority 2018, dated 2025).

What was measured:
Human GLP-1R = target: T1, Human GLP-1R (Homo sapiens, UniProt P43220); assay: Functional antagonism of human GLP1 receptors, cAMP accumulation assay (HiRange cAMP kit, HEK cells infected with GLP-1R Bacmam, GLP-1(7-36) amide at EC80); type: cell-based; details: functional pKb from IC50 corrected by Cheng-Prusoff adaptation, GLP-1(7-36) at EC80
T1 construct: expressed in transfected cells; host or cells: HEK cells infected with GLP-1R BacMam
Method: The method followed a two-step protocol provided in the kit. In brief, HEK cells infected with 1% v/v GLP-1R Bacmam for 24 h were harvested using cell dissociation solution (Gibco), centrifuged and resuspended in the assay buffer (HBSS (Lonza) supplemented with 0.5 mM IBMX (Tocris)). DMSO stock of test compounds were serially diluted in the assay buffer and added to 96-well half area white plates (Costar). Final DMSO concentration in the assay was 0.3%. 20K cells per well were added to plates followed by 30 min incubation (humidified air (5% CO2), 37° C.). […] Intracellular accumulation of cAMP was stopped by addition of the HTRF detection reagents in lysis buffer, provided in the kit. Following 1-hour incubation at RT, plates were read on Pherastar FS (BMG Labtech, Inc.) Dotmatics Studies software was used for fitting data to a four-parameter concentration response curve. Calculated IC50 values were corrected for the agonist concentration using an adaptation of the Cheng-Prusoff equation to generate functional pKb values: […]

Mouse GLP-1R = target: T2, Mouse GLP-1R (Mus musculus, UniProt O35659); assay: Functional antagonism of mouse GLP1 receptors, cAMP accumulation assay (HitHunter, CHO-K1 cells stably expressing mouse GLP-1R, Exendin-4 at EC80); type: cell-based; details: functional pKb from IC50 corrected by Cheng-Prusoff adaptation
T2 construct: expressed in transfected cells
T2 sequence (O35659 22-463): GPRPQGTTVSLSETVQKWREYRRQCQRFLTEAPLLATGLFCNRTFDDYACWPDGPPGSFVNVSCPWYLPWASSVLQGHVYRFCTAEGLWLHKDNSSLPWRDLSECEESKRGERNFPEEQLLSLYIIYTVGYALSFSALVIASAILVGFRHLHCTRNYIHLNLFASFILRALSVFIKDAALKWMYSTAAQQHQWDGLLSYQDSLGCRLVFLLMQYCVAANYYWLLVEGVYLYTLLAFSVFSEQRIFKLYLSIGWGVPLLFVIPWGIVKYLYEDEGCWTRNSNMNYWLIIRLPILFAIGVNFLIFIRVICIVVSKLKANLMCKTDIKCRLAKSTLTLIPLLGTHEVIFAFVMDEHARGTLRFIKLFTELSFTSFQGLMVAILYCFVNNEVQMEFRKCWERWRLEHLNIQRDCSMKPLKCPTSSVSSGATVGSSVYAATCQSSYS
Text: Final DMSO concentration in the assay was 1%. […] Calculated IC50 values were corrected for the agonist concentration using an adaptation of the Cheng-Prusoff equation to generate functional pKb values: […]

T1 sequence (P43220 24-463): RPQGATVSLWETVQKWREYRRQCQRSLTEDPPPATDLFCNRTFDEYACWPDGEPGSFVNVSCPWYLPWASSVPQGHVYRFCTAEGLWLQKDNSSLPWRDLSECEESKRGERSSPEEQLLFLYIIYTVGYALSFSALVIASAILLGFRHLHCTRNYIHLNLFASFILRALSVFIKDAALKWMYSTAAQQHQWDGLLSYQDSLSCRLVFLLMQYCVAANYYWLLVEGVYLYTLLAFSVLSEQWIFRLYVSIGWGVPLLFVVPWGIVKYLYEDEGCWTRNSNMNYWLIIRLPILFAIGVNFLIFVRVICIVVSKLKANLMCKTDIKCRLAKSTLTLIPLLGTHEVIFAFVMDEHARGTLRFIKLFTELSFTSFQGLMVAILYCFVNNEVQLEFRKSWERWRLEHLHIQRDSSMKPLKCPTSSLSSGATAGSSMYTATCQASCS

exendin(9-39)amide [Ex 9-39] was tested, and the “Human GLP-1R antagonist cAMP fpKb” value (Human GLP-1R) was 7.8 and the “Mouse GLP-1R antagonist cAMP fpKb” value (Mouse GLP-1R) was 7.2.
